Experimental data taken from patent US10124035B2, “DISC-1 pathway activators in the control of neurogenesis” (Massachusetts Institute of Technology, priority 2008, dated 2018).
Entries after “also recorded” stand apart in the source; their conditions may differ.

Key:
[1] = test system: DISC1 shRNA infected mice; assay: Forced swim test; format: in vivo, mouse
Experimental: (§1) Behavioral abnormalities in DISC1 knockdown mice. a. DISC1 knockdown in adult dentate gyms caused increased hyperactivity in the Open Field Test. b and c. DISC1 knockdown in adult dentate gyms caused depressive-like behavior in the Forced Swimming test and the Novelty Suppression Feeding experiment. b. Forced Swimming Test Mice were put in the beaker with water for 6 minutes and counted the last 4 minutes for the time of immobility. c. Novelty Suppression Feeding Test. Mice were restricted with food for 48 hours and tested for the motivation to eat food. Mice were tested the latency for first bite, the time they spent on food, and the time they ate during 5 minutes. d. […] Mice were injected and allowed to recover for 2 weeks, then treated with the GDK3beta inhibitor SB216763 at 2 mg/kg/day for two weeks, after that the behavioral test was performed.
Alterations in neurogenesis are implicated in the development of depression and other abnormal behaviors. To examine the behavioral consequences of disrupting the DICS1/GSK3β pathway, we silenced DISC1 expression in the adult dentate gyms and evaluated behavioral consequences. Four weeks after the injection of control or DISC1 shRNA-1 lentivirus, mice were treated with vehicle or SB-216763 (2 mg/kg i.p.) every other day for 10 days. […]

[2] = test system: adult progenitor proliferation in dentate gyrus; assay: Adult progenitor proliferation in dentate gyrus (BrdU) after lentivirus injection; format: in vivo
Source text: Cell positioning and BrdU incorporation defects caused by DISC1 loss-of-function are rescued by human WT-DISC1 or SA-β-catenin. The percentage of GFP positive cells in the SVZ/VZ or CP is shown (n=5, **, p<0.01; ***, p<0.005). Scale bar=20 μm. b. The reduction in mitotic index caused by DISC1 knockdown in embryonic brains is rescued by human WT-DISC1 or SA-β-catenin. Arrows indicate GFP and pH3 double positive cells. Shown is the percentage of GFP and pH3 double positive cells in total GFP positive cells (n=4, *, p<0.05; ***, p<0.005). Scale bar=20 μm. c. Control or DISC1 shRNA-1 lentivirus was stereotactically injected into adult dentate gyms. After 4 weeks of recovery, mice received SB216763 (2 mg/kg) every other day for 2 weeks and BrdU (100 mg/kg) daily for 7 days. The GFP signal represents lentiviral infected cells in dentate gyms. Scale bar=50 μm. d. […] The percentage of GFP and BrdU double positive cells is shown (n=5, *, p<0.05; **, p<0.01; ***, p<0.005; ns, not significant). Scale bar=10 μm.
• Mice. Swiss Webster pregnant female mice were purchased from Taconic (Hudson, N.Y.). • Cell Culture. AHPs were kindly provided by Dr. Gage (Lie, D. C. et al. Wnt signaling to regulates adult hippocampal neurogenesis. Nature 437, 1370-5 (2005)) and cultured under conditions described previously (Palmer, T. D., Takahashi, J. & Gage, F. H. The adult rat hippocampus contains primordial neural stem cells. Mol Cell Neurosci 8, 389-404 (1997)). Primary neural progenitors were isolated from E14 mouse embryos and cultured as described previously (Sanada, K. & Tsai, L. H. G protein betagamma subunits and AGS3 control spindle orientation and asymmetric cell fate of cerebral cortical progenitors. Cell 122, 119-31 (2005)). N2a and 293T cells were cultured in DMEM medium containing 10% FBS, L-glutamine, and penicillin/streptomycin. Wnt3a expressing L cells and untransfected L cells were obtained from ATCC (Manassas, Va.). Wnt3a conditional medium was produced according to the ATCC protocol. To induce AHP differentiation, FGF2 was removed from the culture medium and 1 μM retinoic acid/1% FBS was added to the medium for 4 days. • Reagents. Recombinant Wnt3a protein was obtained from Chemicon (Rosemont, Ill.). FGF2 was obtained from PeproTech (Rocky Hill, N.J.). Recombinant GST-GSK3β was obtained from Active Motif (Carlsbad, Calif.). Recombinant GST-β-catenin and GST-axin were obtained from Millipore (Billerica, Mass.). The GSK313 inhibitor, SB-216763, AR-A104418 and His-GSK3β, were obtained from Sigma-Aldrich (Sigma-Aldrich, St. Louis, Mo.). L803-MTS was obtained from Calbiochem (San Diego, Calif.). GST-AKT1 was obtained from Cell Signaling (Beverly, Mass.). […]

[3] = test system: DISC1 shRNA injected mice; assay: Open Field test (hyperlocomotion in response to novelty); format: in vivo, mouse; conditions: for hyperlocomotion/hyperactivity in novel open field: DISC1 shRNA injected mice, SB-216763 2 mg/kg i.p.
Experimental: as §1
Alterations in neurogenesis are implicated in the development of depression and other abnormal behaviors. To examine the behavioral consequences of disrupting the DICS1/GSK3β pathway, we silenced DISC1 expression in the adult dentate gyms and evaluated behavioral consequences. Four weeks after the injection of control or DISC1 shRNA-1 lentivirus, mice were treated with vehicle or SB-216763 (2 mg/kg i.p.) every other day for 10 days. […] DISC1 shRNA injected mice traveled a greater distance and spent more time moving in a novel open field than control mice (FIG. 17A). These behaviors were normalized by SB-216763 treatment. We further tested whether DISC1 loss-of-function had consequences on depression-like behavior in the forced swim test. […] Importantly, swimming velocity was unchanged. […] Thus, increased GSK3β activity caused by DISC1 loss-of-function is associated with schizophrenia- and depression-like behaviors.

[4] = lentivirus in adult dentate gyrus, compared to control mice

| Compound | immobility in forced swim test ([1]; DISC1 shRNA infected mice, SB-216763 2 mg/kg i.p.) | BrdU positive cells in dentate gyrus ([2]; DISC1 shRNA-1 infected mice, SB216763 2 mg/kg for 2 weeks, 2 mg/kg) | number of BrdU positive cells in dentate gyrus ([2]; mice infected with control virus, SB216763 2 mg/kg for 2 weeks) | hyperlocomotion/hyperactivity in novel open field ([3]; 2 mg/kg) | hyperlocomotion/hyperactivity in novel open field ([3]; listed as SB216763, 2 mg/kg) | immobility in forced swim test [1, 4] | active caspase 3 labeling in GFP positive cells in the dentate gyrus ([2]; lentivirus injected adult mice) | BrdU incorporation in adult dentate gyrus ([2]; lentivirus injected, compared to control shRNA cells) | locomotion in novel open field [3, 4] |
| --- | --- | --- | --- | --- | --- | --- | --- | --- | --- |
| Cn1cc(C2=C(c3ccc(Cl)cc3Cl)C(=O)NC2=O)c2ccccc21 [SB-216763] | suppressed | no longer exhibited a reduction in BrdU positive cells; also recorded: can be rescued | significantly increased the number of BrdU positive cells | normalized | can be rescued | – | – | – | – |
| DISC1 shRNA-1: shRNA targeting rat and mouse DISC1, SEQ ID NO:4, in pLentiLox 3.7 vector (GGCAAACACTGTGAAGTGC) | – | – | – | – | – | greater immobility | no increase in active caspase 3 labeling | significant reduction in BrdU incorporation | hyperlocomotion in response to novelty |
